For 4 compounds, IC50 results are on record in ChEMBL document CHEMBL1136604, “Cryptophycin affinity labels: synthesis and biological activity of a benzophenone analogue of cryptophycin-24” (Bioorg Med Chem Lett, 2003).

Structures are written as SMILES. ≈ marks a conversion by molar mass, not a printed value.

The IC50 is the concentration that gives 50% inhibition. Low values mean greater potency in that assay, high ones weaker potency in that assay.

One test relates to HCT-116. Put plainly: Inhibitory activity against HCT116 cells after 24 hr cell growth. Particulars: Homo sapiens, HCT-116, 24 h. The test is classed as functional, cell-based.
The subject of the next test is MCF7S. Put plainly: Inhibitory activity against MCF-7 cells after 72 hr cell growth. The test is classed as functional, cell-based. Particulars: Homo sapiens.
A further test concerns NCI/ADR-RES. Put plainly: Inhibitory activity against MCF7-ADR cells after 72 hr cell growth. Conditions: Homo sapiens. Format: functional, cell-based.
For the next test, the target named is Tubulin. The test can be described thus: Concentration required to reduce the amount of pelleted tubulin. The test is classed as protein-complex assay.
A further test deals with KB. The test can be described thus: Cytotoxicity against KB cells. Format: functional, cell-based. Conditions: Homo sapiens.

Take `COc1ccc(C[C@H]2NC(=O)/C=C/C[C@@H]([C@H](C)[C@H]3O[C@@H]3c3ccc(C(=O)c4ccccc4)cc3)OC(=O)[C@H](CC(C)C)OC(=O)CCNC2=O)cc1`: the IC50 amounted to 1.1 nM with HCT-116, 0.078 nM with MCF7S, 70 nM in the test on NCI/ADR-RES and 7400 nM on Tubulin.
On to `COc1ccc(C[C@H]2NC(=O)/C=C/C[C@@H]([C@H](C)[C@@H]3O[C@@H]3c3ccc(C(=O)c4ccccc4)cc3)OC(=O)[C@H](CC(C)C)OC(=O)CCNC2=O)cc1`, for which the IC50 in the test with HCT-116 is 253 nM; in the test on MCF7S, 6 nM; with NCI/ADR-RES, 447 nM; at Tubulin, > 100000 nM.
On to `COc1ccc(C[C@H]2NC(=O)/C=C/C[C@@H]([C@H](C)[C@H]3O[C@@H]3c3ccccc3)OC(=O)[C@H](CC(C)C)OC(=O)CCNC2=O)cc1` [ARENASTATIN A], for which the IC50 with HCT-116 turned out to be 0.285 nM; in the test on KB it was 0.005 ng/mL (≈ 0.00824 nM); in the test with MCF7S, 0.13 nM; with NCI/ADR-RES it was 0.164 nM; against Tubulin it was 15000 nM.
On to `COc1ccc(C[C@H]2NC(=O)/C=C/C[C@@H]([C@H](C)[C@H]3O[C@@H]3c3ccccc3)OC(=O)[C@H](CC(C)C)OC(=O)[C@H](C)CNC2=O)cc1Cl` [CRYPTOPHYCIN A], for which the IC50 in the test with HCT-116 worked out at 0.027 nM; in the test with MCF7S it was 0.003 nM; in the test on NCI/ADR-RES, 0.013 nM; at Tubulin it was 3700 nM.
